Experimental data from patent publication US11208399B2, “NLRP3 inflammasome inhibitors” (Novartis AG, priority 2019, dated 2021).
pIC50: −log10 of the molar value. Counter-ions that a name gives are not always drawn. Like-named read-outs stand apart in the source and are kept apart here.

Legend:
[1] = tested on: NF-kB-dependent TNF-α secretion; test: TNF-α secretion assay in THP-1 cells (counter screen, HTRF); format: cell-based; conditions: Pam3CSK4-stimulated, 3 hours
Experimental: Monocytic THP-1 cells were maintained according to providers' instructions in RPMI media as described above. […] Experimental compounds were prepared and added as described above. TNF-α secretion was triggered by the addition of either 1 μg/mL LPS (Sigma, #L4391) or 100 ng/mL Pam3CSK4 (Invivogen, #tlrl-pms) depending on the experiment, and cells were incubated for 3 hours. 10 μL supernatant was removed, and TNF-α levels were monitored using an HTRF assay (CisBio, #62TNFPEC) according to manufacturers' instructions. Viability was monitored as described above.
IC50 values were calculated from the plot of percentage of inhibition versus the inhibitor concentration by a logistics fit according to: y=A2+(A1−A2)/(1+(x/IC50)^p) where y is the %-inhibition at the inhibitor concentration, x. A1 is the lowest inhibition value, i.e. 0%, and A2 the maximum inhibition value, i.e. 100%. The exponent, p, is the Hill coefficient. The curve fitting was conducted with an internally developed software suite. […]

[2] = tested on: NLRP3 inflammasome; test: IL-1β secretion assay in PMA-differentiated THP-1 cells, nigericin-activated (HTRF); format: cell-based
Experimental: 10 μL supernatant was removed, and IL-1p levels were monitored using an HTRF assay (CisBio, #621L1PEC) according to manufacturers' instructions. Viability and pyroptosis was monitored with the addition of PrestoBlue cell viability reagent (Life Technologies, #A13261) directly to the cell culture plate.
IC50 values were calculated from the plot of percentage of inhibition versus the inhibitor concentration by a logistics fit according to: y=A2+(A1−A2)/(1+(x/IC50)^p) where y is the %-inhibition at the inhibitor concentration, x. A1 is the lowest inhibition value, i.e. 0%, and A2 the maximum inhibition value, i.e. 100%. The exponent, p, is the Hill coefficient. The curve fitting was conducted with an internally developed software suite.
NLRP3-dependent IL-1β secretion was stimulated in PMA-differentiated THP-1 cells by the addition of nigericin, and cytokines were measured in the […] after 3 hours. As discussed above, activation of the NLRP3 inflammasome requires both an NF-kB-dependent priming step and the addition of a NLRP3 activator.

[3] = Homo sapiens, 15 μM nigericin, 3 hours, read-out: IL-1β IC50

Structure (SMILES) | pIC50 ([1]; Homo sapiens) | pIC50 [2, 3] | pIC50 [1] | pIC50 ([2]; read-out: IL-1β IC50, 15 μM nigericin, 3 hours)
Cc1cc(C(F)(F)F)cc(O)c1-c1ccc(N[C@H]2CC[C@H](O)[C@@H]2O)nn1 [Ex 89a, (1S,2R,3S)-3-((6-(2-Hydroxy-6-methyl-4-(trifluoromethyl)phenyl)pyridazin-3-yl)amino) cyclopentane-1,2-diol] | < 4.00 | 7.22 |  | 
Cc1cc(C(F)(F)F)cc(O)c1-c1ccc(NCC(C)(C)N)nn1 [Ex 29, 2-(6-((2-Amino-2-methylpropyl)amino)pyridazin-3-yl)-3-methyl-5-(trifluoromethyl)phenol] | < 4.00 | 6.77 |  | 
Oc1cc(C(F)(F)F)cc(Cl)c1-c1ccc(N[C@H]2C[C@@H](O)C2)nn1 [Ex 31, 3-Chloro-2-(6-((cis-3-hydroxycyclobutyl)amino)pyridazin-3-yl)-5-(trifluoromethyl)phenol] | < 4.00 | 6.78 |  | 
Cc1cc(C(F)(F)F)cc(O)c1-c1ccc(N[C@H]2C[C@](O)(C(F)(F)F)C2)nn1 [Ex 67, 2-(6-(((cis)-3-Hydroxy-3-(trifluoromethyl)cyclobutyl)amino)pyridazin-3-yl)-3-methyl-5-(trifluoromethyl)phenol] | 4.34 | 7.40 |  | 
Cc1cc(C(F)(F)F)cc(O)c1-c1cc(C(F)(F)F)c(N[C@H]2C[C@@](C)(O)C2)nn1 [Ex 56, 2-(6-(((cis)-3-Hydroxy-3-methylcyclobutyl)amino)-5-(trifluoromethyl)pyridazin-3-yl)-3-methyl-5-(trifluoromethyl)phenol] | < 4.00 | 8.08 |  | 
Cc1cc(C(F)(F)F)cc(O)c1-c1ccc(N[C@H]2CCCN3CCC[C@@H]23)nn1 [Ex 83b, 3-Methyl-2-(6-(((8S,8aS)-octahydroindolizin-8-yl)amino)pyridazin-3-yl)-5-(trifluoromethyl) phenol] | < 4.00 | 7.16 |  | 
Cc1cc(C(F)(F)F)cc(O)c1-c1ccc(NC[C@@H]2CC(F)(F)CN2)nn1 [Ex 22, (S)-2-(6-(((4,4-Difluoropyrrolidin-2-yl)methyl)amino)pyridazin-3-yl)-3-methyl-5-(trifluoromethyl)phenol] | < 4.00 | 7.09 |  | 
Cc1cc(C(F)(F)F)cc(O)c1-c1ccc(NC(C)(C)CO)nn1 [Ex 79, 2-(6-((1-Hydroxy-2-methylpropan-2-yl)amino)pyridazin-3-yl)-3-methyl-5-(trifluoromethyl)phenol] | < 4.00 | 6.43 |  | 
Cc1ncccc1CNc1ccc(-c2c(O)cc(Cl)cc2C(F)(F)F)nn1 [Ex 35, 5-Chloro-2-(6-(((2-methylpyridin-3-yl)methyl)amino)pyridazin-3-yl)-3-(trifluoromethyl)phenol] | < 4.00 | 6.61 |  | 
OCCNc1ccc(-c2c(O)cc(C(F)(F)F)cc2Cl)nn1 [Ex 37, 3-Chloro-2-(6-((2-hydroxyethyl)amino)pyridazin-3-yl)-5-(trifluoromethyl)phenol] | < 4.00 | 6.42 |  | 
Cc1cc(C(F)(F)F)cc(O)c1-c1ccc(NC[C@H]2CC(F)(F)CN2)nn1 [Ex 23, (R)-2-(6-(((4,4-Difluoropyrrolidin-2-yl)methyl)amino)pyridazin-3-yl)-3-methyl-5-(trifluoromethyl)phenol] | < 4.00 | 7.03 |  | 
Cc1cc(C(F)(F)F)cc(O)c1-c1ccc(N[C@H]2C[C@@](C)(O)C2)nn1 [Ex 2, 2-(6-(((cis)-3-Hydroxy-3-methylcyclobutyl)amino)pyridazin-3-yl)-3-methyl-5-(trifluoromethyl)phenol] | < 4.00 | 7.99 |  | 
Cc1cc(C(F)(F)F)cc(O)c1-c1ccc(N[C@@H]2CC[C@@H]3CC[C@H]2N3C)nn1 [Ex 85b, 3-Methyl-2-(6-(((1R,2R,5R)-8-methyl-8-azabicyclo[3.2.1]octan-2-yl)amino)pyridazin-3-yl)-5-(trifluoromethyl)phenol] |  |  | < 4.00 | 8.89
Cc1cc(C(F)(F)F)cc(O)c1-c1ccc(NC[C@@H]2CCCCN2CCO)nn1 [Ex 84b, (S)-2-(6-(((1-(2-Hydroxyethyl)piperidin-2-yl)methyl)amino)pyridazin-3-yl)-3-methyl-5-(trifluoromethyl)phenol] | < 4.48 | 7.27 |  | 
Cc1cc(C(F)(F)F)cc(O)c1-c1ccc(NC[C@@](C)(O)CO)nn1 [Ex 88b, (R)-3-((6-(2-Hydroxy-6-methyl-4-(trifluoromethyl)phenyl)pyridazin-3-yl)amino)-2-methylpropane-1,2-diol] | < 4.00 | 7.22 |  | 
Cc1cc(C(F)(F)F)cc(O)c1-c1ccc(NCC2COCCN2C)nn1 (racemic) [Ex 77, (rac)-3-Methyl-2-(6-(((4-methylmorpholin-3-yl)methyl)amino)pyridazin-3-yl)-5-(trifluoromethyl)phenol] | < 4.00 | 7.21 |  | 
Cc1cc(C(F)(F)F)cc(O)c1-c1ccc(NC[C@](C)(O)CO)nn1 [Ex 88a, (S)-3-((6-(2-Hydroxy-6-methyl-4-(trifluoromethyl)phenyl)pyridazin-3-yl)amino)-2-methylpropane-1,2-diol] | 4.39 | 7.21 |  | 
Cc1cc(C(F)(F)F)cc(O)c1-c1ccc(NC[C@](C)(O)C(F)(F)F)nn1 [Ex 78, (S)-3-Methyl-2-(6-((3,3,3-trifluoro-2-hydroxy-2-methylpropyl)amino)pyridazin-3-yl)-5-(trifluoromethyl)phenol HCl-salt] | < 4.00 | 6.70 |  | 
Cc1cc(C(F)(F)F)cc(O)c1-c1ccc(N[C@@H]2CCC[C@H](O)C2)nn1 [Ex 3, 2-(6-(((1R,3S)-3-Hydroxycyclohexyl)amino)pyridazin-3-yl)-3-methyl-5-(trifluoromethyl)phenol] | < 4.00 | 7.59 |  | 
Cc1cc(C(F)(F)F)cc(O)c1-c1ccc(NC[C@@H](O)C(C)C)nn1 [Ex 90a, (S)-2-(6-((2-Hydroxy-3-methylbutyl)amino)pyridazin-3-yl)-3-methyl-5-(trifluoromethyl)phenol] | < 4.48 | 7.19 |  | 
Cc1cc(C(F)(F)F)cc(O)c1-c1ccc(NCC(C)(C)O)nn1 [Ex 15, 2-(6-((2-Hydroxy-2-methylpropyl)amino)pyridazin-3-yl)-3-methyl-5-(trifluoromethyl)phenol] | < 4.00 | 7.07 |  | 
Cc1cc(C(F)(F)F)cc(O)c1-c1ccc(N[C@@H]2CCC(=O)NC2)nn1 [Ex 61, (R)-5-((6-(2-Hydroxy-6-methyl-4-(trifluoromethyl)phenyl)pyridazin-3-yl)amino)piperidin-2-one] | < 4.00 | 7.18 |  | 
Cc1cc(C(F)(F)F)cc(O)c1-c1ccc(NC2(C)CCCN(C)C2)nn1 (stereo not drawn) [Ex 52, 2-(6-((1,3-Dimethylpiperidin-3-yl)amino)pyridazin-3-yl)-3-methyl-5-(trifluoromethyl)phenol TFA-salt] | < 4.00 | 6.73 |  | 
Cc1cc(C(F)(F)F)cc(O)c1-c1ccc(NC[C@@H]2C[C@@H](F)CN2)nn1 [Ex 76, 2-(6-((((2S,4R)-4-Fluoropyrrolidin-2-yl)methyl)amino)pyridazin-3-yl)-3-methyl-5-(trifluoromethyl)phenol] | < 4.00 | 7.05 |  | 
Cc1ncccc1CNc1ccc(-c2c(O)cc(C(F)(F)F)cc2Cl)nn1 [Ex 34, 3-Chloro-2-(6-(((2-methylpyridin-3-yl)methyl)amino)pyridazin-3-yl)-5-(trifluoromethyl)phenol] | < 4.00 | 6.30 |  | 
Cc1cc(-c2c(C)cc(C(F)(F)F)cc2O)nnc1NC1CCC(=O)N(C)C1 (stereo not drawn) [Ex 99, 5-((6-(2-Hydroxy-6-methyl-4-(trifluoromethyl)phenyl)-4-methylpyridazin-3-yl)amino)-1-methylpiperidin-2-one] | < 4.00 | 7.12 |  | 
Cc1cc(-c2c(C)cc(C(F)(F)F)cc2O)nnc1NCC(C)(C)O [Ex 72, 2-(6-((2-Hydroxy-2-methylpropyl)amino)-5-methylpyridazin-3-yl)-3-methyl-5-(trifluoromethyl)phenol] | < 4.00 | 7.35 |  | 
Cc1cc(C(F)(F)F)cc(O)c1-c1ccc(N[C@@H]2CCC[C@@H](O)C2)nn1 [Ex 58, 2-(6-(((1R,3R)-3-Hydroxycyclohexyl)amino)pyridazin-3-yl)-3-methyl-5-(trifluoromethyl)phenol] | < 4.00 | 7.23 |  | 
Cc1cc(C(F)(F)F)cc(O)c1-c1ccc(NC[C@@H]2CCCCN2)nn1 [Ex 21, (S)-3-Methyl-2-(6-((piperidin-2-ylmethyl)amino)pyridazin-3-yl)-5-(trifluoromethyl)phenol] | < 4.00 | 7.32 |  | 
Cc1cc(C(F)(F)F)cc(O)c1-c1ccc(NC[C@H]2CCCCN2)nn1 [Ex 20, (R)-3-Methyl-2-(6-((piperidin-2-ylmethyl)amino)pyridazin-3-yl)-5-(trifluoromethyl)phenol] | < 4.00 | 7.08 |  | 
